“And” between values parts separate entries of the source, which are not always exact repeats. Equal values may be shown once.
Test system: WM3248 melanoma cells, 486 antibodies
Assay: Reverse phase protein arrays (RPPA);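 on RPPA ACC1.R.C: ratio of treated to vehicle (0 µM) normalized linear protein signal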;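 on RPPA AMPK.a2 pS345.R.V: ratio of treated to vehicle (0 µM) normalized linear protein signal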;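 on RPPA AMPKa pT172.R.C: ratio of treated to vehicle (0 µM) normalized linear protein signal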;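 on RPPA ASNS.R.V: ratio of treated to vehicle (0 µM) normalized linear protein signal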;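 on RPPA AceCS1.R.V: ratio of treated to vehicle (0 µM) normalized linear protein signal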;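 on RPPA Akt1.R.V: ratio of treated to vehicle (0 µM) normalized linear protein signal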;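 on RPPA Atg5.R.C: ratio of treated to vehicle (0 µM) normalized linear protein signal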
Format: cell-based, Human
Description: Pellets were snap frozen in liquid nitrogen and shipped to MD Anderson Cancer Center core RPPA facility for RPPA analysis (Table S5). Three biological replicates for each sample were generated.
Nomenclatures on the RPPA heatmaps: name_of_antibody.species_of_antibody.status_of_antibody. V - antibody validated; C - validation of antibody in progress; Q - antibody nonspecific; E – under evaluation; antibodies raised in M - mouse, G - goat, R - rabbit, or T - rat.

## CN(C)c1cccc(Nc2cc(-c3ccccc3)nc(C3CCNCC3)n2)c1 [ARN22089, N1,N1-dimethyl-N3-(6-phenyl-2-(piperidin-4-yl)pyrimidin-4-yl)benzene-1,3-diamine]
5 uM, single samples
  RPPA EGFR_pY1068.R.C: 1.000 and 0.953 and 1.026
  RPPA EGFR_pY1173.R.V: 0.975 and 1.083 and 1.079
  RPPA EMA.M.C: 1.076 and 0.967 and 1.014
  RPPA ENY2.M.C: 0.948 and 0.847
  RPPA ER.a.R.V: 0.800 and 1.157 and 1.137
  RPPA ER.a_pS118.R.V: 0.923 and 1.516 and 1.141
  RPPA ERCC1.R.C: 1.055 and 0.895 and 0.971
  RPPA ERCC5.R.C: 1.027 and 0.974 and 0.973
  RPPA ERRalpha.R.V: 1.078 and 0.970 and 0.952
  RPPA EVI1.R.V: 0.942 and 0.941
  RPPA Elk1_pS383.R.C: 0.946 and 1.013 and 1.129
  RPPA Enolase.1.R.V: 1.024 and 0.893 and 0.818
  RPPA Enolase.2.R.V: 0.995 and 0.946
  RPPA EphA2.R.V: 0.776 and 1.046
  RPPA EphA2_pS897.R.C: 0.644 and 1.190 and 1.055
  RPPA EphA2_pY588.R.C: 0.942 and 0.920
  RPPA Erk5.R.V: 1.097 and 1.135
  RPPA Ets.1.R.V: 1.185 and 0.950 and 0.594
  RPPA FAK.R.C: 0.858 and 1.217 and 0.941
  RPPA FAK_pY397.R.V: 1.026 and 0.959 and 1.059
  RPPA FANCD2.R.V: 0.883 and 1.063
  RPPA FASN.R.V: 1.017 and 0.767
  RPPA FGF.basic.R.C: 0.868 and 1.191
  RPPA FN14.R.C: 0.857 and 1.226 and 1.168
  RPPA FOXM1.R.V: 0.885
  RPPA FOXO3.R.V: 0.861 and 0.945 and 1.100
  RPPA FRS2.alpha_pY196.R.V: 0.930 and 0.961 and 0.957
  RPPA FTO.R.V: 1.124 and 0.945 and 0.752
  RPPA FoxO3a_pS318_S321.R.C: 0.918 and 0.939
  RPPA G6PD.R.V: 0.943 and 0.965
  RPPA GATA3.M.V: 0.797 and 0.715
  RPPA GATA6.R.V: 0.919 and 1.005
  RPPA GCLC.R.C: 1.024 and 1.110 and 0.894
  RPPA GCLM.R.V: 0.926 and 0.954
  RPPA GCN5L2.R.V: 0.871 and 1.148
  RPPA GGPS1.M.V: 0.934 and 0.780
  RPPA GRB2.R.V: 0.928 and 1.049 and 1.170
  RPPA GRB7.R.V: 0.960 and 1.157 and 0.957
  RPPA GSK.3B.R.C: 1.001 and 1.019
  RPPA GSK.3a.b.M.V: 0.936 and 0.817
  RPPA GSK.3a.b_pS21_S9.R.V: 0.866 and 1.380 and 0.704
  RPPA Gab2.R.V: 1.251 and 0.896 and 0.910
  RPPA Gli1.R.C: 1.000 and 0.967
  RPPA Gli3.R.C: 0.979 and 1.003 and 0.745
  RPPA Glucocorticoid.Receptor.R.V: 1.035 and 1.000 and 1.021
  RPPA Glutamate.D1.2.R.V: 0.976 and 0.943 and 0.801
  RPPA Glutaminase.R.C: 0.948 and 1.063 and 0.715
  RPPA Granzyme.B.R.V: 0.964 and 1.146
  RPPA Grp75.R.C: 0.944 and 0.963
  RPPA Gys.R.V: 0.967 and 1.080
  RPPA Gys_pS641.R.V: 0.994 and 1.246 and 0.822
  RPPA H2AX_pS139.R.C: 0.914 and 1.103
  RPPA H2AX_pS140.M.C: 1.104 and 0.895 and 0.770
  RPPA HER2.M.V: 0.948 and 0.899
  RPPA HER2_pY1248.R.V: 0.827 and 1.156
  RPPA HER3.R.V: 0.886 and 0.834
  RPPA HER3_pY1289.R.C: 0.992 and 0.888
  RPPA HES1.R.V: 1.367 and 1.154
  RPPA Heregulin.R.V: 0.832 and 1.116 and 1.160
  RPPA eEF2K.R.V: 0.918 and 0.788
  RPPA eIF4E.R.V: 0.941 and 1.515 and 0.898
  RPPA eIF4E_pS209.R.V: 0.935 and 1.281 and 0.858
  RPPA eIF4G.R.C: 1.030 and 0.956 and 1.155
10 uM
  RPPA MYH11.R.C Average: 1.243
  RPPA Myosin.IIa.R.C Average: 0.941
  RPPA Myosin.IIa_pS1943.R.V Average: 1.022
  RPPA Myt1.R.C Average: 0.989
  RPPA N.Cadherin.R.V Average: 1.064
  RPPA N.Ras.M.V Average: 0.991
  RPPA NDRG1_pT346.R.V Average: 1.015
  RPPA NDUFB4.R.V Average: 1.035
  RPPA NRF2.R.C Average: 0.996
  RPPA Notch1.R.V Average: 1.064
  RPPA Notch1.cleaved.R.V Average: 0.926
  RPPA Notch3.R.C Average: 1.098
  RPPA Oct.4.R.C Average: 1.008
  RPPA P.Cadherin.R.C Average: 0.973
  RPPA PAI.1.M.V Average: 1.014
  RPPA PAICS.R.C Average: 0.920
  RPPA PAK1.R.V Average: 0.961
  RPPA PAK4.R.V Average: 1.063
  RPPA PAK_pS474_S602_S560.R.V Average: 1.085
  RPPA PAK_pT423_T402.R.C Average: 0.987
  RPPA PAR.R.C Average: 0.480
  RPPA PARG.R.C Average: 0.970
  RPPA PARP.R.V Average: 1.017
  RPPA PAX6.R.V Average: 1.003
  RPPA PCNA.M.C Average: 0.987
  RPPA PD.1.R.V Average: 1.058
  RPPA PD.L1.R.C Average: 0.976
  RPPA PDH.M.V Average: 1.031
  RPPA PDHA1.R.V Average: 0.986
  RPPA PDHK1.R.C Average: 0.952
  RPPA PDK1_pS241.R.V Average: 0.942
  RPPA PEA.15.R.V Average: 0.922
  RPPA PERK.R.V Average: 1.010
  RPPA PGM1.R.V Average: 0.998
  RPPA PHLPP.R.V Average: 1.083
  RPPA PI3K.p85.R.C Average: 1.062
  RPPA PI3K.p110.a.R.C Average: 0.904
  RPPA PI3K.p110.b.M.C Average: 0.987
  RPPA PKA.a.R.V Average: 0.877
  RPPA PKC.a.b.II_pT638_T641.R.V Average: 0.910
  RPPA PKC.b.II_pS660.R.V Average: 1.018
  RPPA PKCa.R.V Average: 0.991
  RPPA PKM2.R.C Average: 0.940
  RPPA PLC.gamma1.R.V Average: 1.083
  RPPA PLC.gamma1_pS1248.R.V Average: 0.999
  RPPA PLK1.R.C Average: 0.905
  RPPA PR.R.V Average: 1.064
  RPPA PRAS40.M.C Average: 1.049
  RPPA PRAS40_pT246.R.V Average: 0.957
  RPPA Patched.R.C Average: 0.971
  RPPA Paxillin.R.C Average: 0.830
  RPPA Pdcd4.R.C Average: 0.977
  RPPA Porin.M.V Average: 1.020
  RPPA p21.R.C Average: 1.010
  RPPA p27.Kip1.R.C Average: 1.046
  RPPA p27_pT157.R.C Average: 1.014
  RPPA p27_pT198.R.V Average: 1.168
  RPPA p38.MAPK.R.V Average: 0.975
  RPPA p38.a.M.V Average: 1.028
  RPPA p53.R.C Average: 0.908
  RPPA p70.S6K1.R.V Average: 0.918
  RPPA p70.S6K_pT389.R.V Average: 0.996
  RPPA p90RSK_pT573.R.C Average: 1.053
10 uM, 10W1
  RPPA A.Raf.R.V: 0.962
  RPPA ACC1.R.C: 1.063
  RPPA ACC_pS79.R.V: 0.772
  RPPA ACLY_pS455.R.V: 1.099
  RPPA ACSL1.R.V: 0.988
  RPPA ACVRL1.R.C: 1.018
  RPPA ADAR1.M.V: 1.194
  RPPA ALKBH5.R.V: 0.984
  RPPA AMPK.a2_pS345.R.V: 1.028
  RPPA AMPKa.R.C: 0.972
  RPPA AMPKa_pT172.R.C: 0.665
  RPPA AR.R.V: 0.830
  RPPA ASNS.R.V: 0.786
  RPPA ATM_pS1981.R.V: 1.131
  RPPA ATP5A.M.C: 0.979
  RPPA ATP5H.R.V: 1.113
  RPPA ATRX.R.C: 1.033
  RPPA ATR_pS428.R.C: 0.934
  RPPA AceCS1.R.V: 0.931
  RPPA Akt1.R.V: 0.892
  RPPA Akt1_pS473.R.V: 0.970
  RPPA Akt2.R.V: 0.959
  RPPA Akt2_pS474.R.C: 1.062
  RPPA Akt.R.V: 0.917
  RPPA Akt_pS473.R.V: 1.128
  RPPA Akt_pT308.R.V: 0.936
  RPPA Ambra1_pS52.R.C: 1.051
  RPPA Annexin.I.M.V: 1.059
  RPPA Annexin.VII.M.V: 1.077
  RPPA Atg3.R.V: 0.970
  RPPA Atg4B.R.C: 0.890
  RPPA Atg5.R.C: 0.920
  RPPA Atg7.R.V: 0.855
  RPPA Aurora.A.R.C: 0.735
  RPPA Aurora.ABC_pT288_pT232_pT198.R.C: 0.857
  RPPA Aurora.B.R.V: 1.102
  RPPA Axl.R.V: 0.724
